Assay results published in ChEMBL document CHEMBL1201862, “PubChem BioAssay data set” (2004).
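Assay format: 96-well plates, 48-hour exposure. GI50 marks 50% less growth.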 Active and inactive are the calls of the source. Cut-off read from the data, not from the text of the source: active = GI50 up to about 1.1 µM and inactive = higher.

Key:
Assay in all cases: NCI-60 cell line screen, 48 h
[1] = tested on: UACC-62
[2] = tested on: Malme-3M
[3] = tested on: SNB-19
[4] = tested on: PC-3
[5] = tested on: MDA-N
[6] = tested on: HL-60
[7] = tested on: EKVX
[8] = tested on: LOX IMVI
[9] = tested on: M14
[10] = tested on: SNB-75
[11] = tested on: MCF7
[12] = tested on: COLO 205
[13] = tested on: A549
[14] = tested on: MDA-MB-231
[15] = tested on: SF-295
[16] = tested on: SK-MEL-2
[17] = tested on: IGROV-1
[18] = tested on: HCC 2998

Row | Compound | GI50 [1] | GI50 [2] | GI50 [3] | GI50 [4] | GI50 [5] | GI50 [6] | GI50 [7] | GI50 [8] | GI50 [9] | GI50 [10] | GI50 [11] | GI50 [12] | GI50 [13] | GI50 [14] | GI50 [15] | GI50 [16] | GI50 [17] | GI50 [18]
1 | CC(=O)NC1=C(OS(=O)(=O)c2ccc(C)cc2)CN(C)C1=O | 6.79 µM (inactive) | 2.26 µM (inactive) | 3.43 µM (inactive) | 2.84 µM (inactive) | 4.56 µM (inactive) | 2.83 µM (inactive) | 4.84 µM (inactive) | 4.6 µM (inactive) | 5.04 µM (inactive) | 4.31 µM (inactive) | 2.89 µM (inactive) | 5.75 µM (inactive) | 3.5 µM (inactive) | 7.82 µM (inactive) | 4.1 µM (inactive) | 2.55 µM (inactive) | 3.39 µM (inactive) | 2.43 µM (inactive)
2 | O=[N+]([O-])/C=C/c1c(Cl)cccc1Cl | 2.77 µM (inactive) | 3.05 µM (inactive) | 5.28 µM (inactive) | 1.77 µM (inactive) | 2.89 µM (inactive) | 1.24 µM (inactive) | 5.65 µM (inactive) | 1.37 µM (inactive) | 1.48 µM (inactive) | 18 µM (inactive) | 1.64 µM (inactive) | 0.849 µM (active) | 8.63 µM (inactive) | 1.91 µM (inactive) | 7.87 µM (inactive) | 5.94 µM (inactive) | 3.65 µM (inactive) | 3.45 µM (inactive)
3 | O=C1c2ccccc2C(=O)N1c1ccc(Cc2ccc(N3C(=O)c4ccccc4C3=O)cc2)cc1 | > 100 µM (inactive) | > 100 µM (inactive) | > 100 µM (inactive) | > 100 µM (inactive) | > 100 µM (inactive) | < 0.01 µM (active) | > 100 µM (inactive) | > 100 µM (inactive) | > 100 µM (inactive) | > 84.5 µM (inactive) | > 100 µM (inactive) | > 100 µM (inactive) | > 100 µM (inactive) | > 100 µM (inactive) | > 50.7 µM (inactive) | > 100 µM (inactive) | > 100 µM (inactive) | > 100 µM (inactive)
4 | CCc1cc2c(c3c1CCCC3)CC1(Cc3ccc(C(=O)OC)cc3C1)C2 (stereo not drawn) | > 100 µM (inactive) | > 100 µM (inactive) | > 100 µM (inactive) | 65 µM (inactive) | > 100 µM (inactive) | 20.8 µM (inactive) | 64.4 µM (inactive) | > 100 µM (inactive) | > 100 µM (inactive) | > 100 µM (inactive) | > 100 µM (inactive) | > 100 µM (inactive) | > 100 µM (inactive) | > 100 µM (inactive) | > 100 µM (inactive) | 94.6 µM (inactive) | > 100 µM (inactive) | > 100 µM (inactive)
5 | C=C1c2nc3ccccc3n2C=C(c2ccc(OC)cc2)N1c1ccc(OCCN2CCCCC2)cc1 | 20.7 µM (inactive) | > 48.4 µM (inactive) | 11.3 µM (inactive) | 15.2 µM (inactive) | 19.7 µM (inactive) | 3.58 µM (inactive) | 40.9 µM (inactive) | 7.41 µM (inactive) | 14.2 µM (inactive) | 50.5 µM (inactive) | 9.16 µM (inactive) | 18.7 µM (inactive) | 17.6 µM (inactive) | 19.8 µM (inactive) | 8.85 µM (inactive) | 22.1 µM (inactive) | 12.4 µM (inactive) | 16 µM (inactive)
6 | COc1cc(C[C@@]2(C)[C@@H]3CCC[C@H](CO)[C@@]3(C)CC[C@@H]2C)c(Cl)c(OC)c1 | 15.3 µM (inactive) | 16.2 µM (inactive) | 18.6 µM (inactive) | 14.2 µM (inactive) | 15.5 µM (inactive) | 17.6 µM (inactive) | 14.3 µM (inactive) | 17.8 µM (inactive) | 18.3 µM (inactive) | 18 µM (inactive) | 15.5 µM (inactive) | 15.3 µM (inactive) | 14.4 µM (inactive) | 16.4 µM (inactive) | 16.3 µM (inactive) | 16.8 µM (inactive) | 14.7 µM (inactive) | 16.1 µM (inactive)
7 | CCOC(=O)c1cc2c([nH]1)c(O)cc1c2ccn1Cc1ccccc1 | 15.5 µM (inactive) | 18.5 µM (inactive) | 14.2 µM (inactive) | 16.1 µM (inactive) | 15.3 µM (inactive) | 13 µM (inactive) | 12.8 µM (inactive) | 14.4 µM (inactive) | 23.6 µM (inactive) | 22.2 µM (inactive) | 12.5 µM (inactive) | 21.4 µM (inactive) | 13.7 µM (inactive) | 23.5 µM (inactive) | 15.8 µM (inactive) | 20.4 µM (inactive) | 19.3 µM (inactive) | 19 µM (inactive)
8 | O=C(NCCCCCCNCc1cccc2ccccc12)Nc1cccc2ccccc12 | > 100 µM (inactive) | > 100 µM (inactive) | > 100 µM (inactive) | > 100 µM (inactive) | > 100 µM (inactive) | > 100 µM (inactive) | > 100 µM (inactive) | > 100 µM (inactive) | 34.3 µM (inactive) | > 100 µM (inactive) | > 100 µM (inactive) | > 100 µM (inactive) | > 100 µM (inactive) | > 100 µM (inactive) | > 100 µM (inactive) | > 100 µM (inactive) | > 100 µM (inactive) | 85.3 µM (inactive)
9 | CSC(=S)OC1CC(n2cnc3c(NC(=O)c4ccccc4)ncnc32)OC1CO[Si](C)(C)C(C)(C)C (stereo not drawn) | 14.1 µM (inactive) | 21.1 µM (inactive) | 36.7 µM (inactive) | 5.64 µM (inactive) | 7.87 µM (inactive) | 2.84 µM (inactive) | 25.1 µM (inactive) | 8.55 µM (inactive) | 13.9 µM (inactive) | 34.1 µM (inactive) | 8.05 µM (inactive) | 5.85 µM (inactive) | 12.4 µM (inactive) | 41.1 µM (inactive) | 9.82 µM (inactive) | 16.2 µM (inactive) | 27.2 µM (inactive) | 9.02 µM (inactive)
10 | C/C(=C\COc1ccc2ccc(=O)oc2c1)CCC(=O)C(C)(C)O | 18.3 µM (inactive) | 44.9 µM (inactive) | 32.7 µM (inactive) | 53.5 µM (inactive) | 25.6 µM (inactive) | 15.2 µM (inactive) | 34 µM (inactive) | 13.8 µM (inactive) | 22 µM (inactive) | 68.1 µM (inactive) | 19.1 µM (inactive) | 20.7 µM (inactive) | 26.7 µM (inactive) | 44 µM (inactive) | 38.4 µM (inactive) | 39.1 µM (inactive) | 35.1 µM (inactive) | 19.9 µM (inactive)
11 | COc1cc([N+](=O)[O-])c(S(=O)(=O)O)cc1-n1nc(-c2ccccc2)n[n+]1-c1cc(S(=O)(=O)[O-])c([N+](=O)[O-])cc1OC | > 100 µM (inactive) | > 100 µM (inactive) | > 100 µM (inactive) | > 100 µM (inactive) | > 100 µM (inactive) | > 100 µM (inactive) | > 100 µM (inactive) | > 100 µM (inactive) | > 100 µM (inactive) | > 100 µM (inactive) | > 100 µM (inactive) | > 100 µM (inactive) | > 100 µM (inactive) | > 100 µM (inactive) | > 100 µM (inactive) | > 100 µM (inactive) | > 100 µM (inactive) | > 100 µM (inactive)
